Test results from publication PMC12736951, “Design, Synthesis, and Biological Evaluation of 6″-Modified Apramycin Derivatives to Overcome Aminoglycoside Resistance” (Pharmaceutics, 2025).

What was measured:
[1] = tested on: E. coli S30 Extract System, firefly luciferase synthesis; assay: Cell-free translation inhibition assay; type: biochemical; details: for inhibition of protein synthesis in vitro (firefly luciferase): 0.4 μM, E. coli S30 extract; for inhibitory effect on translation relative to apramycin (1): equivalent concentrations (0.4 μM)
Protocol: The inhibitory effects of the compounds under investigation on in vitro firefly luciferase synthesis were evaluated using the E. coli S30 Extract System for Linear Templates (Promega, Madison, WI, USA), as previously described. The working concentration for all tested compounds in the in vitro translation reaction was 0.4 μM. As all compounds were diluted in water, it was used as the negative control.

E. coli JW5503 SmR = assay: MIC against transformant carrying ANT(3″); type: cell-based; details: Escherichia coli, JW5503SMR
Protocol: (§1) The determination of the MIC values was performed on five strains from the working collection of MSU. E. coli JW5503 [25], which lacked a kanamycin resistance cassette that had been removed as per the method outlined in [26], and a strain derived from this strain through in vitro selection with kanamycin. […] Strains containing AG-modifying enzymes were obtained through the transformation of E. coli JW5503 with plasmids that carried cassettes of resistance, namely pCRISPomyces-2–AAC(3)-IV (Addgene #61737), pdualrep2–APH(3′)-II [27] and pt67–ANT(3″). The MIC determination was performed as described for JW5503 in [19].

[2] = tested on: E. coli JW5503 with pJC27 β-galactosidase codon 537 reporter; assay: Translation accuracy using β-galactosidase reporters; type: cell-based; details: 0.1 μL of 50 mg/mL, 37 °C, 18 h, codon 537 GAC/GGG reporters
Protocol: To evaluate translation accuracy in the presence of antibiotics, E. coli JW5503 (kanamycin resistance cassette removed as per) was transformed with pJC27 plasmids. […] The synthesis of active β-galactosidase depends on translation errors occurring (when codons GAC and GGG are read as GAA). Petri dishes (9 cm) containing 20 mL of solid LB agar (1.5%), supplemented with chloramphenicol (11.3 μg/mL) and X-Gal (80 μg/mL), were prepared. A secondary soft-agar layer comprising 3.5 mL of LB agar (0.6%) supplemented with 11.3 μg/mL chloramphenicol and 0.5 mL of liquid culture (A600~1.0) was added and allowed to solidify. Antibiotics were applied to the plates in 0.1 μL aliquots at a concentration of 50 mg/mL for tobramycin, streptomycin, kanamycin, and apramycin, and for 5a, 5b, 8a, and 8b. The plates were then incubated at 37 °C for 18 h. […] The results were documented using a Samsung Galaxy Tab A71 camera.

E. coli JW5503 kanS = assay: MIC against E. coli JW5503 parent strain; type: cell-based; details: Escherichia coli, JW5503KANS
Protocol: as §1

E. coli JW5503 KanR = assay: MIC against transformant carrying APH(3′)-II; type: cell-based; details: Escherichia coli, JW5503KANR
Protocol: as §1

E. coli MAR17-1350 = assay: MIC, MDR clinical isolate; type: cell-based; details: Escherichia coli, MAR171350; E. coli MAR17-1350, MDR clinical isolate (NDM-5); read-out: MIC
Text: (§2) The microbial strains used in this study were obtained from the collection of the Gause Institute of New Antibiotics. The control strains included in the analysis were S. aureus ATCC 29213, E. coli ATCC 25922, P. aeruginosa ATCC 27853, M. smegmatis ATCC 607. Clinical isolates E. coli MAR17-1350, K. pneumoniae APEX-5, K. pneumoniae MAR14-3395, and K. pneumoniae MAR18-1752 with multidrug resistance, including resistance to aminoglycosides were kindly provided by the Research Institute of Antimicrobial Chemotherapy (RIAC) of the Smolensk State Medical University, Smolensk. The microbial cultures were stored at −75 °C in trypticase soy broth (Becton, Dickinson, France) containing 10–15% glycerol. Storage was carried out in accordance with CLSI guidelines. Prior to experimentation, the bacterial strains were revived from cryopreservation by inoculating them onto trypticase soy agar (Becton, Dickinson, France) and incubating at (36 ± 1) °C for 16–24 h. Individual morphologically homogeneous colonies were then suspended in sterile physiological saline, and the turbidity of the suspension was adjusted to 0.5 McFarland units using a DEN-1 spectrophotometer (Biosan, Riga, Latvia), which corresponds to a concentration of 1.5 × 10^8 CFU/mL.
(§3) The samples were dissolved in sterile distilled water, depending on the physicochemical properties of the compounds under investigation, to a concentration of 10,000 µg/mL. Working solutions were then prepared by serial dilution, resulting in concentrations ranging from 64 µg/mL to 0.125 µg/mL.
(§4) Activity was evaluated by determining the minimum inhibitory concentration (MIC) values using the microdilution method in Mueller–Hinton Broth (Beckton and Dickinson, Le Pont-de-Claix, France), in accordance with the standard procedure for assessing the antimicrobial susceptibility of microorganisms.
(§5) The analysis was conducted in 96-well microtiter plates (Medpolymer, Saint Petersburg, Russia). The bacterial inoculum was introduced within 15 min of preparation. MIC values were determined after incubation for 15–18 h at (36 ± 1) °C. Microbial growth in the presence of the tested compounds was compared to the growth control (without exposure to the test samples). The MIC was defined as the lowest concentration at which visible microbial growth was inhibited.
(§6) To ensure the accuracy of the results, the control antibiotics kanamycin A, gentamycin, and tobramycin (Abcr GmbH, Karlsruhe, Germany) were included, along with standard reference strains: E. coli ATCC 25922. The MIC values for kanamycin A were determined as follows: E. coli ATCC 25922—1–4 µg/mL [22]. For gentamycin, the MIC values were E. coli ATCC 25922–0.25–1 µg/mL [23]. For tobramycin, the MIC values were E. coli ATCC 25922–0.25–1 µg/mL [23]. The MIC values of the reference strains were required to fall within the acceptable ranges specified in [24], provided that standard assay conditions were maintained.

K. pneumoniae MAR14-3395 = assay: MIC, MDR clinical isolate; type: cell-based; details: Klebsiella pneumoniae, MAR143395; K. pneumoniae MAR14-3395, MDR clinical isolate (NDM-1 + OXA-244); read-out: MIC
Text: as §2, §3, §4, §5, §6

K. pneumoniae APEX-5 = assay: MIC, MDR clinical isolate; type: cell-based; details: Klebsiella pneumoniae, APEX5; K. pneumoniae APEX-5, MDR clinical isolate (NDM-16); read-out: MIC
Text: as §2, §3, §4, §5, §6

K. pneumoniae MAR18-1752 = assay: MIC, MDR clinical isolate; type: cell-based; details: Klebsiella pneumoniae, MAR181752; K. pneumoniae MAR18-1752, MDR clinical isolate (NDM-1); read-out: MIC
Text: as §2, §3, §4, §5, §6

E. coli ATCC 25922 = assay: MIC, broth microdilution; type: cell-based, Escherichia coli; details: Escherichia coli, ATCC25922, Table 1, read-out: MIC
Text: as §2, §3, §4, §5, §6

E. coli JW5503 ApmR = assay: MIC against transformant carrying AAC(3)-IV; type: cell-based; details: Escherichia coli, JW5503APMR
Protocol: as §1

[3] = tested on: E. coli JW5503 EF-G P610T; assay: MIC against aminoglycoside-resistant EF-G mutant; type: cell-based; details: Escherichia coli
Protocol: as §1

| SMILES | inhibition of protein synthesis in vitro (firefly luciferase) [1] | inhibitory effect on translation relative to apramycin (1) [1] | MIC (E. coli JW5503 SmR) | induction of translation errors (blue staining at edge of inhibition zone) [2] | MIC (E. coli JW5503 kanS) | MIC (E. coli JW5503 KanR) | MIC (E. coli MAR17-1350) | MIC (K. pneumoniae MAR14-3395) | MIC (K. pneumoniae APEX-5) | MIC (K. pneumoniae MAR18-1752) | MIC (E. coli ATCC 25922) | MIC (E. coli JW5503 ApmR) | MIC [3] |
| --- | --- | --- | --- | --- | --- | --- | --- | --- | --- | --- | --- | --- | --- |
| CNC1C(OC2OC(CNCCN)C(N)C(O)C2O)OC2CC(N)C(OC3C(N)CC(N)C(O)C3O)OC2C1O (stereo not shown) [Compound 5a, 6″-((2-Aminoethyl-1)-amino)-6″-deoxyapramycin acetate] | inhibited protein synthesis in vitro | approximately one order of magnitude weaker | 32 µg/mL | caused blue staining of the bacterial lawn | 16 µg/mL | 16 µg/mL | 4 µg/mL | 4 µg/mL | 4 µg/mL | 4 µg/mL | 2 µg/mL | > 256 µg/mL | 32 µg/mL |
| CNC1C(OC2OC(CNCCCNC(=N)N)C(N)C(O)C2O)OC2CC(N)C(OC3C(N)CC(N)C(O)C3O)OC2C1O (stereo not shown) [Compound 8b, 6″-((3-Guanidinopropyl-1)-amino)-6″-deoxyapramycin acetate] | inhibited protein synthesis in vitro | approximately one order of magnitude weaker | 32 µg/mL | caused blue staining of the bacterial lawn | 16 µg/mL | 16 µg/mL | 4 µg/mL | 4 µg/mL | 2 µg/mL | 2 µg/mL | 1 µg/mL | > 256 µg/mL | 64 µg/mL |
| CNC1C(OC2OC(CNCCCN)C(N)C(O)C2O)OC2CC(N)C(OC3C(N)CC(N)C(O)C3O)OC2C1O (stereo not shown) [Compound 5b, 6″-((3-Aminopropyl-1)-amino)-6″-deoxyapramycin acetate] | inhibited protein synthesis in vitro | approximately one order of magnitude weaker | 32 µg/mL | caused blue staining of the bacterial lawn | 32 µg/mL | 32 µg/mL | 8 µg/mL | 8 µg/mL | 8 µg/mL | 8 µg/mL | 2 µg/mL | > 256 µg/mL | 64 µg/mL |
| CNC1C(OC2OC(CNCCNC(=N)N)C(N)C(O)C2O)OC2CC(N)C(OC3C(N)CC(N)C(O)C3O)OC2C1O (stereo not shown) [Compound 8a, 6″-((2-Guanidinoethyl-1)-amino)-6″-deoxyapramycin acetate] | inhibited protein synthesis in vitro | approximately one order of magnitude weaker | 16 µg/mL | caused blue staining of the bacterial lawn | 8 µg/mL | 8 µg/mL | 4 µg/mL | 2 µg/mL | 1 µg/mL | 2 µg/mL | 1 µg/mL | > 256 µg/mL | 32 µg/mL |
